Earlier results as cited in paper PMC7933317 (Probiotics and antimicrobial proteins, 2021).

System: human red blood cells (RBCs)
Settings: over the same concentration range; ref [30]

ALWKKLLKKLLKSAKKLG [C18G]
hemolysis of human RBCs: < 10%
